Read-outs that look alike come from different tables or passages of the source.
Tests used:
[1] = Hygroscopicity test of fumaric acid co-crystals under ambient conditions; assay type: physicochemical
Experimental: 0.1 to 0.5 g of each of 1:1, 2:1, 3:1, and 6:1 N-methylglycine co-crystals were placed in the vial under the ambient conditions. The weight changes at various time points of each co-crystal were measured and illustrated in Table 4 below.

[2] = Hygroscopicity test, condition 3 (dynamic vapor sorption, 0 to 90 to 0% RH); assay type: physicochemical; details: DVS, 25° C.
Experimental: Measurement were taken from 0 to 90 to 0% RH at 25° C. with 10% RH per step with equilibration set to dm/dt+0.01%/min for 10 min or 180 min/step.

[3] = Hygroscopicity test, condition 2 (humidity chamber, weight change); assay type: physicochemical; details: for Weight change (%): dry before (change on drying to 0 hr weight)
[4] = DVS, 0 to 70 to 0% RH, 25° C.
Experimental: Measurement were taken from 0 to 70 to 0% RH at 25° C. with 10% RH per step with equilibration set to dm/dt+0.01%/min for 10 min or 180 min/step.

[5] = 70-75% RH, room temperature, 3 days
[6] = 30° C., 75% RH, 72 hr, listed as 2:1 N-methylglycine:L-tartaric acid co-crystal
[7] = 30° C., 75% RH, 5 hr, listed as 1:1 N-methylglycine:DL-tartaric acid co-crystal

| SMILES | Change In Mass (%) ([1]; 21 hr) | Change In Mass (%) ([1]; 45 hr) | Change In Mass (%) ([1]; 48 hr) | Change In Mass (%) ([2]; RH 70%) | Change In Mass (%) ([2]; RH 90%) | Weight ([3]; 30° C., 75% RH, 0 hr) | Weight ([3]; 30° C., 75% RH, 1 hr) | Weight change (%), water absorbed ([3]; 30° C., 75% RH, 1 hr) | Weight ([3]; 30° C., 75% RH, 2 hr) | Weight change (%), water absorbed ([3]; 30° C., 75% RH, 2 hr) | Weight ([3]; 30° C., 75% RH, 3 hr) | Weight change (%), water absorbed ([3]; 30° C., 75% RH, 3 hr) | Weight ([3]; 30° C., 75% RH, 5 hr) | Weight change (%), water absorbed ([3]; 30° C., 75% RH, 5 hr) | Weight ([3]; 30° C., 75% RH, 24 hr) | Weight change (%), water absorbed ([3]; 30° C., 75% RH, 24 hr) | Weight ([3]; 30° C., 75% RH, 48 hr) | Weight change (%), water absorbed ([3]; 30° C., 75% RH, 48 hr) | Weight ([3]; 30° C., 75% RH, 72 hr) | Weight change (%), water absorbed ([3]; 30° C., 75% RH, 72 hr) | further results |
| --- | --- | --- | --- | --- | --- | --- | --- | --- | --- | --- | --- | --- | --- | --- | --- | --- | --- | --- | --- | --- | --- |
| CNCC(=O)O.O=C(O)/C=C/C(=O)O [N-MG/FA = 1/1, N-methylglycine:fumaric acid (1:1 co-crystal)] | 0.96% | 0.96% | 0.96% | – | – | – | – | – | – | – | – | – | – | – | – | – | – | – | – | – | Hygroscopicity comparison [1]: much less hygroscopic than the 2:1, 3:1, and 6:1 co-crystals; Change In Mass (%) ([1]; 1 hr): 0.48%; Change In Mass (%) ([1]; 2 hr): 0.67%; Change In Mass (%) ([1]; 3 hr): 0.57%; Change In Mass (%) ([1]; 4 hr): 0.57%; Change In Mass (%) ([1]; 5 hr): 0.57%; Change In Mass (%) ([1]; 24 hr): 0.96%; Change In Mass (%) ([1]; 96 hr): 0.96% |
| CNCC(=O)O.CNCC(=O)O.O=C(O)C(O)C(O)C(=O)O [N-methylglycine:L-tartaric acid 2:1 co-crystal] | – | – | – | 0.18% | 10.74% | – | – | – | – | – | – | – | – | – | – | – | – | – | – | – | – |
| CNCC(=O)O.CNCC(=O)O.O=C(O)/C=C/C(=O)O [N-MG/FA = 2/1, N-methylglycine:fumaric acid (2:1 co-crystal)] | 6.29% | 7.08% | 7.12% | – | – | – | – | – | – | – | – | – | – | – | – | – | – | – | – | – | Change In Mass (%) ([1]; 15 hr): 5.81%; Change In Mass (%) ([1]; 64 hr): 7.49% |
| CNCC(=O)O.O=C(O)C(O)C(O)C(=O)O [N-MG/L-TA = 1/1, N-methylglycine:L-tartaric acid (1:1) co-crystal] | – | – | – | – | – | 0.1432 g | 0.1437 g | (+0.3%) | 0.1437 g | (+0.3%) | 0.1439 g | (+0.4%) | 0.1439 g | (+0.4%) | 0.1440 g | (+0.5%) | 0.1440 g | (+0.5%) | 0.1441 g | (+0.6%) | Weight change (%), water absorbed ([3]; 30° C., 75% RH, 5 hr, listed as N-methylglycine:L-tartaric acid co-crystal): 0.4%; Outward (appearance) ([3]; 30° C., 75% RH, 72 hr): remained as white powder; Weight change (%), water absorbed ([3]; 30° C., 75% RH, 72 hr, listed as 1:1 N-methylglycine:L-tartaric acid co-crystal): 0.6%; Hygroscopicity comparison ([3]; 30° C., 75% RH, listed as 1:1 N-methylglycine:L-tartaric acid co-crystal): much less hygroscopic than 2:1 N-methylglycine:L-tartaric acid co-crystal; Outward (appearance) ([3]; dry before): White; Weight ([3]; dry before): 0.1434 g; Weight change (%) [3]: (−0.1%); Hygroscopicity comparison [4]: less hygroscopic than N-methylgycine or L-tartaric acid individually; Appearance after exposure to high humidity [5]: remained as fine white powder; Hygroscopicity comparison [5]: much less hygroscopic than the 2:1 co-crystal |
| CNCC(=O)O.CNCC(=O)O.O=C(O)C(O)C(O)C(=O)O (racemic) [N-MG/DL-TA = 2/1, N-methylglycine:DL-tartaric acid 2:1 co-crystal] | – | – | – | 3.12% | 30.35% | 0.1628 g | 0.1695 g | (+4.1%) | 0.1768 g | (+8.6%) | 0.1816 g | (+11.5%) | 0.1877 g | (+15.3%) | 0.2374 g | (+45.8%) | 0.2423 g | (+48.8%) | 0.2441 g | (+49.9%) | Outward (appearance) ([3]; 30° C., 75% RH, 2 hr): Wet; Outward (appearance) ([3]; 30° C., 75% RH, 5 hr): Partial; Outward (appearance) ([3]; 30° C., 75% RH, 24 hr): Liquid; Outward (appearance) ([3]; dry before): White; Weight ([3]; dry before): 0.1628 g; Weight change (%) [3]: (−0%); Change In Mass (%) ([2]; RH 0%): 0.00%; Change In Mass (%) ([2]; RH 10%): 0.15%; Change In Mass (%) ([2]; RH 20%): 0.21%; Change In Mass (%) ([2]; RH 30%): 0.26%; Change In Mass (%) ([2]; RH 40%): 0.77%; Change In Mass (%) ([2]; RH 60%): 2.03%; Change In Mass (%) ([2]; RH 80%): 8.12% |
| CNCC(=O)O.CNCC(=O)O.CNCC(=O)O.O=C(O)/C=C/C(=O)O [N-MG/FA = 3/1, N-methylglycine:fumaric acid (3:1 co-crystal)] | 20.78% | 26.13% | 26.37% | – | – | – | – | – | – | – | – | – | – | – | – | – | – | – | – | – | Change In Mass (%) ([1]; 15 hr): 18.29%; Change In Mass (%) ([1]; 64 hr): 29.22% |
| CNCC(=O)O.CNCC(=O)O.O=C(O)C(O)C(O)C(=O)O (racemic) [N-methylglycine:DL-tartaric acid 2:1 co-crystal] | – | – | – | 3.12% | 30.35% | – | – | – | – | – | – | – | – | – | – | – | – | – | – | – | – |
| CNCC(=O)O.CNCC(=O)O.O=C(O)C(O)C(O)C(=O)O [N-MG/L-TA = 2/1, N-methylglycine:L-tartaric acid 2:1 co-crystal] | – | – | – | 0.18% | 10.74% | 0.1455 g | 0.1462 g | (+0.4%) | 0.1463 g | (+0.5%) | 0.1464 g | (+0.6%) | 0.1465 g | (+0.7%) | 0.1465 g | (+0.7%) | 0.1465 g | (+0.7%) | 0.1471 g | (+1.1%) | Outward (appearance) ([3]; 30° C., 75% RH, 72 hr): Partial; Outward (appearance) [3, 6]: turned into a partial liquid; Weight change (%), water absorbed [3, 6]: 1.1%; Outward (appearance) ([3]; dry before): White; Weight ([3]; dry before): 0.1457 g; Weight change (%) [3]: (−0.1%); Change In Mass (%) ([2]; RH 0%): 0.00%; Change In Mass (%) ([2]; RH 10%): 0.01%; Change In Mass (%) ([2]; RH 20%): 0.03%; Change In Mass (%) ([2]; RH 30%): 0.05%; Change In Mass (%) ([2]; RH 40%): 0.07%; Change In Mass (%) ([2]; RH 50%): 0.09%; Change In Mass (%) ([2]; RH 60%): 0.13%; Change In Mass (%) ([2]; RH 80%): 0.32%; Appearance after exposure to high humidity [5]: turned into moisturized and somewhat sticky white solid |
| CNCC(=O)O.CNCC(=O)O.CNCC(=O)O.CNCC(=O)O.CNCC(=O)O.CNCC(=O)O.O=C(O)/C=C/C(=O)O [N-MG/FA = 6/1, N-methylglycine:fumaric acid (6:1 co-crystal)] | 25.14% | 47.59% | 48.84% | – | – | – | – | – | – | – | – | – | – | – | – | – | – | – | – | – | Change In Mass (%) ([1]; 15 hr): 18.30%; Change In Mass (%) ([1]; 64 hr): 56.36% |
| CNCC(=O)O.CNCC(=O)O.O=C(O)C(O)C(O)C(=O)O [N-methylglycine:D-tartaric acid 2:1 co-crystal] | – | – | – | 0.31% | 14.27% | – | – | – | – | – | – | – | – | – | – | – | – | – | – | – | – |
| CNCC(=O)O.CNCC(=O)O.O=C(O)C(O)C(O)C(=O)O [N-MG/D-TA = 2/1, N-methylglycine:D-tartaric acid 2:1 co-crystal] | – | – | – | 0.31% | 14.27% | – | – | – | – | – | – | – | – | – | – | – | – | – | – | – | Change In Mass (%) ([2]; RH 0%): 0.00%; Change In Mass (%) ([2]; RH 10%): 0.02%; Change In Mass (%) ([2]; RH 20%): 0.04%; Change In Mass (%) ([2]; RH 30%): 0.07%; Change In Mass (%) ([2]; RH 40%): 0.10%; Change In Mass (%) ([2]; RH 50%): 0.15%; Change In Mass (%) ([2]; RH 60%): 0.20%; Change In Mass (%) ([2]; RH 80%): 0.60% |
| CNCC(=O)O.O=C(O)C(O)C(O)C(=O)O (racemic) [N-MG/DL-TA = 1/1, N-methylglycine:DL-tartaric acid 1:1 co-crystal] | – | – | – | – | – | 0.1302 g | 0.1349 g | (+3.6%) | 0.1399 g | (+7.4%) | 0.1469 g | (+12.8%) | 0.1545 g | (+18.7%) | 0.1819 g | (+39.7%) | 0.1819 g | (+39.7%) | 0.1823 g | (+40.0%) | Outward (appearance) ([3]; 30° C., 75% RH, 2 hr): Wet; Outward (appearance) ([3]; 30° C., 75% RH, 5 hr): Partial; Outward (appearance) [3, 7]: started to turn into a partial liquid; Weight change (%), water absorbed [3, 7]: 18.7%; Outward (appearance) ([3]; 30° C., 75% RH, 24 hr): 50%; Hygroscopicity comparison ([3]; 30° C., 75% RH, listed as 1:1 N-methylglycine:DL-tartaric acid co-crystal): much less hygroscopic than 2:1 N-methylglycine:DL-tartaric acid co-crystal; Outward (appearance) ([3]; dry before): White; Weight ([3]; dry before): 0.1305 g; Weight change (%) [3]: (−0.2%) |

From patent US10765651B2, “Co-crystals of substituted glycine and uses thereof” (SyneuRx International (Taiwan) Corp., priority 2017, dated 2020)
